Columns and labels:
Type in all cases: in vivo
[1] = system: Rhopobota naevana; experiment: Pesticidal activity against Rhopobota naevana, spray method; settings: spray on apple leaves, counted 24, 48, 72 hours, time not given, read-out: mortality rate, Rhopobota naevana
Method: Apple leaves were collected along with the stems, and the leaves of 3-4 base were cut into 5 cm×5 cm×5 cm pieces and placed in a tray oasis submerged in water. Then, the pesticide composition where the compound of Synthesis Example 2 was diluted (the solvent=distilled water+acetone 50,000 mg/L+Triton X-100 100 mg/L) was loaded into a 150 mL small sprayer and sprayed to the apple leaves, and 1 hour thereafter, the […] larvae were repeatedly inoculated 5-6 times, one per apple leaf. In particular, the Rhopobota naevana larvae were collected in the R&D Center of Kyung Nong Co., Ltd. (Gyeongju, Korea), and they were used after acclimatization indoors for 24 hours. Then, the Rhopobota naevana larvae were stored under the conditions of 16 hours of light and 8 hours of dark, 25±1° C. and relative humidity of 50-60%, and the number of live Rhopobota naevana larvae was counted 24, 48, and 72 hours after the inoculation. Thereafter, the larvae mortality rate was calculated in the same manner as in Test Example 1 above.

[2] = system: Manulea degenerella; experiment: Pesticidal activity against Manulea degenerella, spray method; settings: third instar larvae, counted 24, 48, 72 hours, time not given
From the text: A water-soaked filter paper (9.0 cm in diameter) was placed in an insect breeding dish (Lab Guide®) with a diameter of 9.0 cm and a height of 4.0 cm, and then parafilm (width 4.0 cm×height 4.0 cm) was placed thereon. Before treating with a pesticide composition, 10 of the third instar Manulea degenerella larvae were inoculated per breeding dish using a No. 4 brush. In particular, Manulea degenerella larvae used were those collected in Icheon, Gyeonggi-do (Korea). Then, the pesticide composition where the compound of Synthesis Example 2 was diluted (the solvent=distilled water+acetone 50,000 mg/L+Triton X-100 100 mg/L) was loaded into a 100 mL small sprayer, and sprayed 10-12 times at a distance of 30 cm and a height of 50 cm, and one cotyledons of a persimmon tree, which is a host plant, were added one at a time. Then, the Manulea degenerella larvae were stored under the conditions of 16 hours of light and 8 hours of darkness, 25±1° C., and relative humidity of 50-60%, and the number of live Manulea degenerella larvae was counted 24, 48, and 72 hours after the inoculation. Thereafter, the larvae mortality rate was calculated in the same manner as in Test Example 1 above.

[3] = system: Resistant Plutella xylostella; experiment: Resistance (tolerance) test against Plutella xylostella; settings: leaf-dipping, chlorantraniliprole-selected resistant individuals, counted 24 and 48 hours, read-out: mortality rate, Resistant Plutella xylostella
Method: Resistance (tolerance) tests for pesticide compositions were performed on Plutella xylostella. In this case, the Plutella xylostellas used were resistant individuals obtained as follows: radish sprouts were germinated using a moth breeding acrylic cage (25 cm×30 cm×30 cm) to induce egg-laying in a breeding room in the Chungbuk National University (Korea), and the adult insects were collected using an InsectaVac Aspirator (BioQuip®) and induced to lay eggs again by applying a selection pressure using diamide-based chlorantraniliprole at 12.5 ppm once a month to breed for multiple generations.
Cabbage leaves were dipped in the pesticide composition where the compound was diluted (the solvent=distilled water+acetone 50,000 mg/L+Triton X-100 100 mg/L) for 30 seconds, and sufficiently shade-dried. Then, the shade-dried cabbage leaves were placed in a petri dish (8.8 cm in diameter) covered with a filter paper and repeatedly inoculated 3-5 times with third instar larvae of Plutella xylostella, which are resistant individuals, 10 larvae per inoculation. Then, the Plutella xylostella larvae were stored under the conditions of 16 hours of light and 8 hours of dark, 25±1° C., and relative humidity of 50-60%, and the number of live […] larvae was counted 24 and 48 hours after the inoculation. Thereafter, the larvae mortality rate was calculated in the same manner as in Test Example 1 above, and the results are shown in Table 2 below.

[4] = system: Maruca vitrta; experiment: Pesticidal activity against Maruca vitrta, artificial feed-dipping method; settings: counted 24, 48, 72 hours, time not given
Method: Cabbage (Daiya) leaves were cut into pieces with a size of 1 cm×1 cm×1 cm, dipped in the pesticide composition where the compound of Synthesis Example 2 was diluted (the solvent=distilled water+acetone 50,000 mg/L+Triton X-100 100 mg/L) for 30 seconds, and then sufficiently shade-dried by placing them on aluminum foil. In this case, the artificial feed used was prepared by a process, in which (1) 13 g of agar powder and 625 mL of secondary distilled water were added into a 1 L beaker and boiled in the microwave for 10 minutes; (2) the agar boiled in the microwave was added into a blender and then 75 g of soybean powder, 20 g of red bean powder, 10 g of malt powder, and 175 mL of secondary distilled water were added thereto and mixed together; and (3) after the resulting mixture was cooled to 50° C., 5 g of a vitamin mixture, 4 g of ascorbic acid, 1 g of sorbic acid, 1 g of β-sitosterol, 10 g of glucose, 10 g of cellulose, 3 g of cholesterol, 1.5 g of methyl-p-hydroxybenzoate, 0.5 g of aureomycin, and 0.4 g of fumidil B were added thereto, mixed together, and then thoroughly cooled. Before placing the artificial feed pieces in a petri dish (¢90 mm×15 mm), parafilm (5.1 cm×5.1 cm) was placed on top of a distilled water-treated filter paper (Ø90 mm) to maintain humidity, and the artificial feed pieces were placed on top of the parafilm.
Then, the second to the third instar larvae of Maruca vitrta were repeatedly inoculated 3-5 times, 10 larvae per inoculation. In this case, the Maruca vitrta larvae used were those purchased from the Bio Utilization Institute (Andong, Korea). Then, the Maruca vitrta larvae were stored under 16 hours of light: 8 hours of dark, 25±1° C., and 50-60% relative humidity, and the number of live Maruca vitrta larvae was counted 24, 48, and 72 hours after inoculation. Thereafter, the larvae mortality rate was calculated in the same manner as in Test Example 1 above.

[5] = system: Grapholita molesta; experiment: Pesticidal activity against Grapholita molesta, spray method; settings: spray on apples, counted 24, 72, 192 hours, time not given, read-out: mortality rate, Grapholita molesta
Method: The pesticide composition where the compound of Synthesis Example 2 was diluted (the solvent=distilled water+acetone 50,000 mg/L+Triton X-100 100 mg/L) was directly sprayed on apples using a CO2 Sprayer® [a nozzle type: Teejet8002VS (a flat fan type), pressure: 800 psi), and then apples were collected 1 hour later, and Grapholita molesta larvae were repeatedly inoculated 5-6 times, 3 per apple. In particular, the Grapholita molesta larvae were collected in the R&D Center of Kyung Nong Co., Ltd. (Gyeongju, Korea), and they were used after acclimatization indoors for 24 hours. Then, the Grapholita molesta larvae were stored under the conditions of 16 hours of light and 8 hours of dark, 25±1° C. and relative humidity of 50-60%, and the number of live Grapholita molesta larvae was counted 24, 72, and 192 hours after the inoculation. Thereafter, the larvae mortality rate was calculated in the same manner as in Test Example 1 above.

SMILES	mortality at 0.1 ppm [1] [%]	mortality at 1 ppm [1] [%]	mortality rate, Manulea degenerella ([2]; 0.1 ppm) [%]	mortality rate, Manulea degenerella ([2]; 1 ppm)	mortality at 0.1 ppm [3] [%]	mortality at 0.3 ppm [3] [%]	mortality at 1 ppm [3] [%]	mortality rate, Maruca vitrta ([4]; 0.1 ppm) [%]	mortality rate, Maruca vitrta ([4]; 1 ppm) [%]	mortality at 10 ppm [5] [%]
CON=CNC(=O)c1ccc(C2=NOC(c3cc(Cl)cc(Cl)c3)(C(F)(F)F)C2)cc1C (stereo not shown) [Comparative Example 1, fluxametamide]	83	100	0	16%%	34	38	58	23	90	85
CNC(=O)c1cc(Cl)cc(C)c1NC(=O)c1cc(Br)nn1-c1ncccc1Cl [Comparative Example 2, chlorantraniliprole]	100	100	100	100%			34	33	83	85
Cc1cc(C2=NOC(c3cc(Cl)cc(C(F)(F)F)c3)(C(F)(F)F)C2)ccc1C(=O)NC(=O)C1CC1 (racemic) [Synthesis Example 2]	100	100	100	100%	93	96	100	100	100	85

Reference: patent publication US20250380697A1, “ISOXAZOLINE DERIVATIVE COMPOUND AND INSECTICIDAL COMPOSITION COMPRISING SAME” (KYUNG NONG CORPORATION, priority 2022, published 2025)
